Experimental data reported in paper PMC7284870, “Antimicrobial Peptides from Rat-Tailed Maggots of the Drone Fly Eristalis tenax Show Potent Activity against Multidrug-Resistant Gram-Negative Bacteria” (Microorganisms, 2020).
In brackets after ≈: the same amount, converted by molar mass. Read-outs that look alike come from different tables or passages of the source.

Assays:
Experiment in all cases: MIC, clinical isolates
Format in all cases: cell-based
[1] = system: Klebsiella oxytoca clinical isolates (2); conditions: Table S1, RKI 609/16
Description: (§1) The strains that were used in this study (Table 2 and Table S1) were cultivated at 37 °C in cation-adjusted Mueller–Hinton broth (CAMB) in Erlenmeyer flasks, or on the same medium with agar in Petri dishes. Exceptionally, Mycobacterium smegmatis was cultivated at 37 °C in brain heart infusion (BHI) medium that was supplemented with 1% Tween-80 in Erlenmeyer flasks, or on the same medium lacking detergent but with agar in Petri dishes. Strains listed with Robert Koch Institute (RKI) strain numbers are clinical isolates from the RKI strain collection originating from hospitalized patients in Germany. The remaining strains originated from the Sanofi strain collection and they were originally purchased from the American Type Culture Collection or the German Collection of Microorganisms and Cell Cultures. Meropenem/colistin-resistant strains were maintained, as described above, with the appropriate antibiotic added at levels below the minimal inhibitory concentration (MIC).
(§2) The MIC values were determined in 384-well microtiter plates with an assay volume of 20 µL. Immediately before each assay, the cultures of test organisms (bacteria grown for 18 h, Candida albicans and M. smegmatis grown for 48 h) were diluted with the appropriate medium to a density of 1 × 10^6 cells/mL (C. albicans), 1 × 10^5 cells/mL (M. smegmatis) or 5 × 10^5 cells per mL (other species). […] We transferred 2-µL aliquots from this dilution series to new 384-well microtiter plates while using a CyBio-Well 384-channel automated pipettor (Analytic Jena, Jena, Germany) and added 18 µL of the diluted suspension of each test species using a Viafill reagent dispenser (Integra), thus reducing the final peptide concentration 10-fold to the range 1024–0.03125 µg/mL. […] The growth of M. smegmatis was measured using the BacTiter-Glo luminescence test system (Promega, Madison, WI, USA). The growth of the other species was determined by visual inspection of the microtiter plate and turbidimetry based on the optical density at 600 nm (OD600). The MIC was defined as the peptide concentration at which no bacterial growth was observed. We supplemented the test medium with either 150 mM NaCl or 1.25 mM CaCl2 to represent monovalent and divalent cations to simulate physiological conditions.

[2] = system: Citrobacter freundii clinical isolate (1); conditions: Table S1, RKI 604/16
Description: as §1, §2

[3] = system: Klebsiella pneumoniae clinical isolates (21)
Description: as §1, §2

[4] = system: Salmonella enterica clinical isolates (10)
Description: as §1, §2

[5] = system: Acinetobacter baumannii clinical isolates (20)
Description: as §1, §2

[6] = system: Enterobacter aerogenes clinical isolate (1); conditions: Klebsiella aerogenes; Table S1, RKI 1026/14-1
Description: as §1, §2

[7] = system: Morganella morganii clinical isolates (4)
Description: as §1, §2

[8] = system: Stenotrophomonas maltophilia clinical isolates (2); conditions: Table S1, RKI 729/15
Description: as §1, §2

[9] = system: Escherichia coli clinical isolates (26)
Description: as §1, §2

[10] = system: Acinetobacter pittii clinical isolate (1); conditions: Table S1, RKI 588/16
Description: as §1, §2

Compound `C[C@@H](O)[C@H]1C(=O)N2C(C(=O)O)=C(S[C@@H]3CN[C@H](C(=O)N(C)C)C3)[C@H](C)[C@H]12` [MEM, meropenem] has an MIC [1] of 16 µg/mL (≈ 41.7 µM), an MIC [2] greater than 64 µg/mL and an MIC ([3]; Klebsiella pneumoniae, Table S1, RKI 600/16, read-out: MIC) of no more than 0.5 µg/mL. It also gave an MIC ([3]; Table S1, RKI 19/16) of no more than 0.5 µg/mL, an MIC ([3]; Table S1, RKI 80/15) of no more than 0.5 µg/mL and an MIC ([3]; Table S1, RKI 94/15) of no more than 0.5 µg/mL. It also gave an MIC ([3]; Table S1, RKI 95/16) of no more than 0.5 µg/mL, an MIC ([3]; Table S1, RKI 107/15) of 1 µg/mL (≈ 2.61 µM) and an MIC ([3]; Table S1, RKI 138/16) of no more than 0.5 µg/mL. It also gave an MIC ([3]; Table S1, RKI 164/16) greater than 64 µg/mL, an MIC ([3]; Table S1, RKI 229/15) of 16 µg/mL (≈ 41.7 µM) and an MIC ([3]; Table S1, RKI 320/16) of no more than 0.5 µg/mL. It also gave an MIC ([3]; Table S1, RKI 328/16) of 64 µg/mL (≈ 167 µM), an MIC ([3]; Table S1, RKI 373/16-1) of no more than 0.5 µg/mL and an MIC ([3]; Table S1, RKI 393/16) of no more than 0.5 µg/mL. It also gave an MIC ([3]; Table S1, RKI 461/16) of no more than 0.5 µg/mL, an MIC ([3]; Table S1, RKI 503/15) of 32 µg/mL (≈ 83.4 µM) and an MIC ([3]; Table S1, RKI 544/13) greater than 64 µg/mL. The MIC ([3]; Table S1, RKI 577/15) was no more than 0.5 µg/mL, the MIC ([3]; Table S1, RKI 908/15) was 32 µg/mL (≈ 83.4 µM) and the MIC ([4]; Table S1, RKI 205/14) was no more than 0.5 µg/mL. For the same compound, the MIC ([4]; Table S1, RKI 206/14) was no more than 0.5 µg/mL, the MIC ([4]; Table S1, RKI 270/14) was no more than 0.5 µg/mL and the MIC ([4]; Table S1, RKI 277/14) was no more than 0.5 µg/mL. It also gave an MIC ([4]; Table S1, RKI 419/14) of no more than 0.5 µg/mL, an MIC ([4]; Table S1, RKI 436/14) of no more than 0.5 µg/mL and an MIC ([4]; Table S1, RKI 437/14) of no more than 0.5 µg/mL. It also gave an MIC ([4]; Table S1, RKI 532/14-1) of no more than 0.5 µg/mL, an MIC ([4]; Table S1, RKI 533/14) of no more than 0.5 µg/mL and an MIC ([4]; Table S1, RKI 583/14) of no more than 0.5 µg/mL. The MIC ([5]; Table S1, RKI 3/15) was 32 µg/mL (≈ 83.4 µM), the MIC ([5]; Table S1, RKI 4/15) was 32 µg/mL (≈ 83.4 µM) and the MIC ([5]; Table S1, RKI 11/16) was greater than 64 µg/mL. For the same compound, the MIC ([5]; Table S1, RKI 12/16) was 64 µg/mL (≈ 167 µM), the MIC ([5]; Table S1, RKI 13/16) was greater than 64 µg/mL and the MIC ([5]; Table S1, RKI 14/16) was greater than 64 µg/mL. The MIC ([5]; Table S1, RKI 16/15) was greater than 64 µg/mL, the MIC ([5]; Table S1, RKI 16/16) was greater than 64 µg/mL and the MIC ([5]; Table S1, RKI 30/16) was greater than 64 µg/mL. The MIC ([5]; Table S1, RKI 32/16) was 64 µg/mL (≈ 167 µM), the MIC ([5]; Table S1, RKI 70/16) was greater than 64 µg/mL and the MIC ([5]; Table S1, RKI 230/15) was greater than 64 µg/mL. It also gave an MIC ([5]; Table S1, RKI 231/15) of 64 µg/mL (≈ 167 µM), an MIC ([5]; Table S1, RKI 271/16) greater than 64 µg/mL and an MIC ([5]; Table S1, RKI 272/16) greater than 64 µg/mL. The MIC ([5]; Table S1, RKI 377/15) was 8 µg/mL (≈ 20.9 µM), the MIC ([5]; Table S1, RKI 523/16) was 32 µg/mL (≈ 83.4 µM) and the MIC ([5]; Table S1, RKI 584/16) was no more than 0.5 µg/mL. It also gave an MIC ([5]; Table S1, RKI 596/16) greater than 64 µg/mL, an MIC [6] of 16 µg/mL (≈ 41.7 µM) and an MIC ([7]; Table S1, RKI 81/15) of no more than 0.5 µg/mL. It also gave an MIC ([7]; Table S1, RKI 93/15) of no more than 0.5 µg/mL, an MIC ([7]; Table S1, RKI 599/16) greater than 64 µg/mL and an MIC ([7]; Table S1, RKI 659/13) of no more than 0.5 µg/mL. It also gave an MIC [8] greater than 64 µg/mL, an MIC ([9]; Table S1, RKI 75/15) greater than 64 µg/mL and an MIC ([9]; Table S1, RKI 95/15) of no more than 0.5 µg/mL. It also gave an MIC ([9]; Table S1, RKI 97/15) of no more than 0.5 µg/mL, an MIC ([9]; Table S1, RKI 314/16) of no more than 0.5 µg/mL and an MIC ([9]; Table S1, RKI 317/16) of no more than 0.5 µg/mL. It also gave an MIC ([9]; Table S1, RKI 330/16) of no more than 0.5 µg/mL, an MIC ([9]; Table S1, RKI 443/16) of 4 µg/mL (≈ 10.4 µM) and an MIC ([9]; Table S1, RKI 462/16) of no more than 0.5 µg/mL. The MIC ([9]; Table S1, RKI 513/16) was no more than 0.5 µg/mL, the MIC ([9]; Table S1, RKI 514/16) was no more than 0.5 µg/mL and the MIC ([9]; Table S1, RKI 515/16) was no more than 0.5 µg/mL. It also gave an MIC ([9]; Table S1, RKI 521/16) of no more than 0.5 µg/mL, an MIC ([9]; Table S1, RKI 524/16) of no more than 0.5 µg/mL and an MIC ([9]; Table S1, RKI 525/16) of no more than 0.5 µg/mL. The MIC ([9]; Table S1, RKI 581/16) was no more than 0.5 µg/mL, the MIC ([9]; Table S1, RKI 582/16) was no more than 0.5 µg/mL and the MIC ([9]; Table S1, RKI 583/16) was no more than 0.5 µg/mL. For the same compound, the MIC ([9]; Table S1, RKI 590/16) was no more than 0.5 µg/mL, the MIC ([9]; Table S1, RKI 592/16) was no more than 0.5 µg/mL and the MIC ([9]; Table S1, RKI 593/16) was no more than 0.5 µg/mL. For the same compound, the MIC ([9]; Table S1, RKI 602/16) was no more than 0.5 µg/mL, the MIC ([9]; Table S1, RKI 607/16) was 8 µg/mL (≈ 20.9 µM) and the MIC ([9]; Table S1, RKI 867/14) was 8 µg/mL (≈ 20.9 µM). For the same compound, the MIC ([9]; Table S1, RKI 1023/14) was no more than 0.5 µg/mL and the MIC [10] was no more than 0.5 µg/mL.
